From US20240360126A1, “PYRAZOLO[3,4-B]PYRIDINE COMPOUNDS FOR THE TREATMENT OF AUTOIMMUNE DISEASE” (Hoffmann-La Roche Inc., priority 2021, published 2024)
pIC50: −log10 of the molar value. Values belong to the compound of their own block, whether it stands above or below them.

Molecular target: T1, human TLR8 (Homo sapiens, UniProt Q9NR97)
T1 construct: host or cells: HEK293 (HEK-Blue hTLR8)
T1 sequence (Q9NR97 27-1041): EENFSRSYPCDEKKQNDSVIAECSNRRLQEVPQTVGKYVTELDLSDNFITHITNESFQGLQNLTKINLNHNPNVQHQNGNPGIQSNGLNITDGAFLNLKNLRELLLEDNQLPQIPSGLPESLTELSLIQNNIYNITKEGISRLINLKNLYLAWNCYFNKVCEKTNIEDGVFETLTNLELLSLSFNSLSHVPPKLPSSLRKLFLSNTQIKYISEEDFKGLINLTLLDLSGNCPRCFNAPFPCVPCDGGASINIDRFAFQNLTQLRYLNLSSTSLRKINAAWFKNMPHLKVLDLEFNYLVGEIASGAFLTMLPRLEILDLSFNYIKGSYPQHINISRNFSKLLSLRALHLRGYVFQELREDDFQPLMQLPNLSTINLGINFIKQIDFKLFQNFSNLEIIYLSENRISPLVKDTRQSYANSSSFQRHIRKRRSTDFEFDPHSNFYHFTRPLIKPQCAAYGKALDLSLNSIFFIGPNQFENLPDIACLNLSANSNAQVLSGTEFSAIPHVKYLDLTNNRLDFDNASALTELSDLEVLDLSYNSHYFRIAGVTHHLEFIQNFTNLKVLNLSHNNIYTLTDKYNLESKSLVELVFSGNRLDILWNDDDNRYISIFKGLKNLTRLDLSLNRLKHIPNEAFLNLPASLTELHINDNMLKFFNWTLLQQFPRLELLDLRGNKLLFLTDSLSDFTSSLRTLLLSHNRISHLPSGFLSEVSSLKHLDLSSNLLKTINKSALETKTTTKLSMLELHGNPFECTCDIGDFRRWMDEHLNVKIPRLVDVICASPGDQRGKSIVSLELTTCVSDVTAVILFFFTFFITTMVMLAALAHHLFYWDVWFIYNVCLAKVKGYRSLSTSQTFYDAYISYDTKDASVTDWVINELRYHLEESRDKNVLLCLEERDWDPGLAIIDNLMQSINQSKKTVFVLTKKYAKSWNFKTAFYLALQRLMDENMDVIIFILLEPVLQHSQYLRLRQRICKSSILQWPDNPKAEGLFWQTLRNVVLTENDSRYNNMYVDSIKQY
Assay: HEK293-Blue-hTLR-8 cells assay
Format: cell-based
Settings: HEK293-Blue-hTLR8 cells, R848 stimulation, 20 hrs; read-out: HEK/hTLR8 IC50
From the text: A stable HEK293-Blue-hTLR-8 cell line was purchased from InvivoGen (Cat. #: hkb-htlr8, San Diego, California, USA). These cells were originally designed for studying the stimulation of human TLR8 by monitoring the activation of NF-κB. A SEAP (secreted embryonic alkaline phosphatase) reporter gene was placed under the control of the IFN-β minimal promoter fused to five NF-κB and AP-1-binding sites. The SEAP was induced by activating NF-κB and AP-1 via stimulating HEK-Blue hTLR8 cells with TLR8 ligands. Therefore the reporter expression was declined by TLR8 antagonist under the stimulation of a ligand, such as R848, for incubation of 20 hrs. The cell culture supernatant SEAP reporter activity was determined using QUANTT-BlueTv™ kit (Cat. #: rep-qbl, Invivogen, San Diego, Ca, USA) at a wavelength of 640 nm, a detection medium that turns purple or blue in the presence of alkaline phosphatase.
HEK293-Blue-hTLR8 cells were incubated at a density of 250,000˜450,000 cells/mL in a volume of 170 μL in a 96-well plate in Dulbecco's Modified Eagle's medium (DMEM) containing 4.5 g/L glucose, 50 U/mi penicillin, […] streptomycin, […], 2 mM L-glutamine, 10% (v/v) heat-inactivated fetal bovine serum with addition of 20 μL test compound in a serial dilution in the presence of final DMSO at 1% and 10 μL of 60 μM R848 in above DMEM, perform incubation under 37° C. in a CO2 incubator for 20 hrs. Then 20 μL of the supernatant from each well was incubated with 180 μL Quanti-blue substrate solution at 37° C. for 2 hrs and the absorbance was read at 620-655 nm using a spectrophotometer. The signaling pathway that TLR8 activation leads to downstream NF-κB activation has been widely accepted, and therefore similar reporter assay was modified for evaluating TLR8 antagonist.

Structure (SMILES): Cc1cc(N2CCC(c3cnc(N4CCNCC4)nc3C)CC2)c2cnn(C)c2n1 [Example 11, 1,6-dimethyl-4-[4-(4-methyl-2-piperazin-1-yl-pyrimidin-5-yl)-1-piperidyl]pyrazolo[3,4-b]pyridine]
pIC50: 7.38

Structure (SMILES): Cc1cc(N2CCC(c3ncc(N4CCNCC4)cc3C)[C@H](C)C2)c2cnn(C)c2n1 (single isomer, unassigned) [Example 25, 1,6-dimethyl-4-[trans-3-methyl-4-(3-methyl-5-piperazin-1-yl-2-pyridyl)-1-piperidyl]pyrazolo[3,4-b]pyridine]
pIC50: 8.15

Structure (SMILES): Cc1cc(N2CCC(c3cnc(N4CCNCC4)cc3C)[C@H](C)C2)c2cnn(C)c2n1 (single isomer, unassigned) [Example 20, 1,6-dimethyl-4-[cis-3-methyl-4-(4-methyl-6-piperazin-1-yl-3-pyridyl)-1-piperidyl]pyrazolo[3,4-b]pyridine]
pIC50: 8.22

Structure (SMILES): Cc1cc(N2CCC(c3ncc(N4CCNCC4)nc3C)[C@H](C)C2)c2cnn(C)c2n1 (single isomer, unassigned) [Example 23, 1,6-dimethyl-4-[trans-3-methyl-4-(3-methyl-5-piperazin-1-yl-pyrazin-2-yl)-1-piperidyl]pyrazolo[3,4-b]pyridine]
pIC50: 8.15

Structure (SMILES): Cc1cc(N2CCC(c3ccc(N4CCNCC4)cc3)CC2)c2cnn(C)c2n1 [Example 1, 1,6-dimethyl-4-[4-(4-piperazin-1-ylphenyl)-1-piperidyl]pyrazolo[3,4-b]pyridine]
pIC50: 7.92

Structure (SMILES): Cc1cc(N2CCC(c3ccc(N4CCNCC4)cn3)CC2)c2cnn(C)c2n1 [Example 2, 1,6-dimethyl-4-[4-(5-piperazin-1-yl-2-pyridyl)-1-piperidyl]pyrazolo[3,4-b]pyridine]
pIC50: 7.68

Structure (SMILES): Cc1cc(N2CCC(c3ncc(N4CCNCC4)nc3C)[C@H](C)C2)c2cnn(C)c2n1 (single isomer, unassigned) [Example 22, 1,6-dimethyl-4-[cis-3-methyl-4-(3-methyl-5-piperazin-1-yl-pyrazin-2-yl)-1-piperidyl]pyrazolo[3,4-b]pyridine]
pIC50: 8.22

Structure (SMILES): CO[C@@H]1CN(c2cnc([C@@H]3CCN(c4cc(C)nc5c4cnn5C)C[C@H]3C)c(C)c2)C[C@H]1N [Example 26, (3R,4R)-1-[6-[(3S,4R)-1-(1,6-dimethylpyrazolo[3,4-b]pyridin-4-yl)-3-methyl-4-piperidyl]-5-methyl-3-pyridyl]-4-methoxy-pyrrolidin-3-amine]
pIC50: 7.85

Structure (SMILES): Cc1cc(N2CCNCC2)cnc1C1CCN(c2ccnc3c2cnn3C)CC1 [Example 5, 1-methyl-4-[4-(3-methyl-5-piperazin-1-yl-2-pyridyl)-1-piperidyl]pyrazolo[3,4-b]pyridine]
pIC50: 7.19

Structure (SMILES): Cc1cc(N2CCC(c3ncc(N4CCNCC4)cn3)CC2)c2cnn(C)c2n1 [Example 4, 1,6-dimethyl-4-[4-(5-piperazin-1-ylpyrimidin-2-yl)-1-piperidyl]pyrazolo[3,4-b]pyridine]
pIC50: 7.23

Structure (SMILES): Cc1cc(N2CCNCC2)ncc1C1CCN(c2ccnc3c2cnn3C)CC1 [Example 6, 1-methyl-4-[4-(4-methyl-6-piperazin-1-yl-3-pyridyl)-1-piperidyl]pyrazolo[3,4-b]pyridine]
pIC50: 7.43

Structure (SMILES): CO[C@H]1CN(c2cnc(C3CCN(c4cc(C)nc5c4cnn5C)CC3)c(C)c2)CC[C@@H]1N [Example 17, (3S,4S)-1-[6-[1-(1,6-dimethylpyrazolo[3,4-b]pyridin-4-yl)-4-piperidyl]-5-methyl-3-pyridyl]-3-methoxy-piperidin-4-amine]
pIC50: 7.41

Structure (SMILES): Cc1cc(N2CCC(c3cnc(N4CCNCC4)cn3)CC2)c2cnn(C)c2n1 [Example 3, 1,6-dimethyl-4-[4-(5-piperazin-1-ylpyrazin-2-yl)-1-piperidyl]pyrazolo[3,4-b]pyridine]
pIC50: 7.30

Structure (SMILES): Cc1cc(N2CCC(c3ncc(N4CCNCC4)cc3C)[C@H](C)C2)c2cnn(C)c2n1 (single isomer, unassigned) [Example 24, 1,6-dimethyl-4-[cis-3-methyl-4-(3-methyl-5-piperazin-1-yl-2-pyridyl)-1-piperidyl]pyrazolo[3,4-b]pyridine]
pIC50: 8.30

Structure (SMILES): Cc1cc(N2CCC(c3cc(C)c(N4CCNCC4)cn3)CC2)c2cnn(C)c2n1 [Example 9, 1,6-dimethyl-4-[4-(4-methyl-5-piperazin-1-yl-2-pyridyl)-1-piperidyl]pyrazolo[3,4-b]pyridine]
pIC50: 7.51

Next, values leading:

pIC50: 7.68
Structure (SMILES): CO[C@@H]1CN(c2ccc([C@H]3CCN(c4cc(C)nc5c4cnn5C)C[C@@H]3C)nc2)C[C@H]1N [Example 36, (3R,4R)-1-[6-[(3R,4S)-1-(1,6-dimethylpyrazolo[3,4-b]pyridin-4-yl)-3-methyl-4-piperidyl]-3-pyridyl]-4-methoxy-pyrrolidin-3-amine]

pIC50: 8.15
Structure (SMILES): Cc1cc(N2CC[C@H](c3ccc(N4CCOC[C@@H](N)C4)cn3)[C@@H](C)C2)c2cnn(C)c2n1 [Example 40, (6S)-4-[6-[(3R,4S)-1-(1,6-dimethylpyrazolo[3,4-b]pyridin-4-yl)-3-methyl-4-piperidyl]-3-pyridyl]-1,4-oxazepan-6-amine]

pIC50: 8.00
Structure (SMILES): CO[C@H]1CN(c2ccc([C@H]3CCN(c4cc(C)nc5c4cnn5C)C[C@@H]3C)nc2)CC[C@@H]1N [Example 39, (3S,4S)-1-[6-[(3R,4S)-1-(1,6-dimethylpyrazolo[3,4-b]pyridin-4-yl)-3-methyl-4-piperidyl]-3-pyridyl]-3-methoxy-piperidin-4-amine]

pIC50: 7.89
Structure (SMILES): COC[C@H]1CN(c2ccc([C@H]3CCN(c4cc(C)nc5c4cnn5C)C[C@@H]3C)nc2)CCN1 [Example 37, 4-[(3R,4S)-4-[5-[(3R)-3-(methoxymethyl)piperazin-1-yl]-2-pyridyl]-3-methyl-1-piperidyl]-1,6-dimethyl-pyrazolo[3,4-b]pyridine]

pIC50: 8.05
Structure (SMILES): Cc1cc(N2CC[C@H](c3ccc(N4CCNCC4)cn3)[C@@H](C)C2)c2cnn(C)c2n1 [Example 35, 1,6-dimethyl-4-[(3R,4S)-3-methyl-4-(5-piperazin-1-yl-2-pyridyl)-1-piperidyl]pyrazolo[3,4-b]pyridine]

pIC50: 7.96
Structure (SMILES): Cc1cc(N2CC[C@H](c3ccc(N4CC5(CNCCO5)C4)cn3)[C@@H](C)C2)c2cnn(C)c2n1 [Example 38, 2-[6-[(3R,4S)-1-(1,6-dimethylpyrazolo[3,4-b]pyridin-4-yl)-3-methyl-4-piperidyl]-3-pyridyl]-5-oxa-2,8-diazaspiro[3.5]nonane]

pIC50: 8.70
Structure (SMILES): Cc1cc(N2CC[C@@H](c3ncc(N4CCOC[C@@H](N)C4)cc3C)[C@H](C)C2)c2cnn(C)c2n1 [Example 28, (6S)-4-[6-[(3S,4R)-1-(1,6-dimethylpyrazolo[3,4-b]pyridin-4-yl)-3-methyl-4-piperidyl]-5-methyl-3-pyridyl]-1,4-oxazepan-6-amine]

pIC50: 8.22
Structure (SMILES): Cc1cc(N2CC[C@H](c3ccc(N4CC(C)(N)C4)cn3)[C@@H](C)C2)c2cnn(C)c2n1 [Example 43, 1-[6-[(3R,4S)-1-(1,6-dimethylpyrazolo[3,4-b]pyridin-4-yl)-3-methyl-4-piperidyl]-3-pyridyl]-3-methyl-azetidin-3-amine]

pIC50: 8.05
Structure (SMILES): Cc1cc(N2CC[C@@H](c3ncc(N4CC[C@@H](N)[C@H](F)C4)cc3C)[C@H](C)C2)c2cnn(C)c2n1 [Example 31, (3R,4R)-1-[6-[(3S,4R)-1-(1,6-dimethylpyrazolo[3,4-b]pyridin-4-yl)-3-methyl-4-piperidyl]-5-methyl-3-pyridyl]-3-fluoro-piperidin-4-amine]
